Test results as given in ChEMBL document CHEMBL5113408, “Design, synthesis and antitumour activity of novel 5(6)-amino-benzimidazolequinones containing a fused morpholine” (Eur J Med Chem, 2022).

Legend:
Format in all cases: functional, cell-based
[1] = tested on: MCF7; experiment: Antiproliferative activity against human MCF7 cells assessed as inhibition of cell growth by SRB assay
[2] = tested on: ECa-109 cell line; experiment: Antiproliferative activity against human EC109 cells assessed as inhibition of cell growth by SRB assay
[3] = tested on: MGC-803; experiment: Antiproliferative activity against human MGC-803 cells assessed as inhibition of cell growth by SRB assay
[4] = tested on: HeLa; experiment: Antiproliferative activity against human HeLa cells assessed as inhibition of cell growth by SRB assay

Structure (SMILES) | IC50 [1] [µM] | IC50 [2] [µM] | IC50 [3] [µM] | IC50 [4] [µM]
CCOc1ccc(NC2=CC(=O)c3nc4n(c3C2=O)C[C@@H]([C@H](O)CO)OC4)cc1 | 11.3 | 9.88 | 4.31 | 4.12
COc1ccccc1NC1=CC(=O)c2c(nc3n2C[C@@H]([C@H](O)CO)OC3)C1=O | 6.81 | 7.64 | 4.42 | 8.97
O=C1C(Nc2cccc(F)c2)=CC(=O)c2c1nc1n2[C@H]2OC[C@@H](O)[C@H]2OC1 | > 4 | 2.37 | 1.47 | > 8
COc1cccc(NC2=CC(=O)c3nc4n(c3C2=O)[C@H]2OC[C@@H](O)[C@H]2OC4)c1 | > 4 | 7.62 | 1.78 | 4.28
O=C1C(Nc2cccc(Cl)c2)=CC(=O)c2c1nc1n2[C@H]2OC[C@@H](O)[C@H]2OC1 | 2.97 | 3.08 | 1.53 | 7.97
O=C1C(N2CCCC2)=CC(=O)c2c1nc1n2[C@H]2OC[C@@H](O)[C@H]2OC1 | > 16 | > 16 | > 16 | > 16
O=C1C=C(Nc2cccc(Cl)c2)C(=O)c2c1nc1n2C[C@@H]([C@H](O)CO)OC1 | 9.4 | 11.3 | 5.27 | 4.06
CCc1ccc(NC2=CC(=O)c3nc4n(c3C2=O)[C@H]2OC[C@@H](O)[C@H]2OC4)cc1 | 0.96 | 3.08 | 1.29 | 3.99
COc1ccccc1NC1=CC(=O)c2c(nc3n2[C@H]2OC[C@@H](O)[C@H]2OC3)C1=O | 6.58 | > 4 | 1.67 | 7.46
CCCc1ccc(NC2=CC(=O)c3nc4n(c3C2=O)C[C@@H]([C@H](O)CO)OC4)cc1 | 5.94 | 6.88 | 3.67 | 3.29
O=C1C(Nc2ccccc2F)=CC(=O)c2c1nc1n2[C@H]2OC[C@@H](O)[C@H]2OC1 | > 4 | 2.66 | 2 | 9.82
O=C1C(NCc2ccccc2)=CC(=O)c2c1nc1n2[C@H]2OC[C@@H](O)[C@H]2OC1 | > 8 | > 8 | 3.49 | 11
CCc1ccc(NC2=CC(=O)c3c(nc4n3C[C@@H]([C@H](O)CO)OC4)C2=O)cc1 | 6.57 | 4.54 | 3.69 | 4.59
Cc1ccc(NC2=CC(=O)c3c(nc4n3C[C@@H]([C@H](O)CO)OC4)C2=O)cc1 | 7.41 | 5.08 | 4.11 | 5.86
O=C1C=C(Nc2ccc(I)cc2)C(=O)c2c1nc1n2C[C@@H]([C@H](O)CO)OC1 | 7.69 | 5.78 | 3.25 | 3.61
COc1cccc(NC2=CC(=O)c3nc4n(c3C2=O)C[C@@H]([C@H](O)CO)OC4)c1 | > 16 | > 16 | 9.26 | 8.41
O=C1C=C(Nc2cccc(F)c2)C(=O)c2c1nc1n2[C@H]2OC[C@@H](O)[C@H]2OC1 | 5.5 | 7.03 | 2.18 | 6.44
CCCc1ccc(NC2=CC(=O)c3nc4n(c3C2=O)[C@H]2OC[C@@H](O)[C@H]2OC4)cc1 | 4.66 | > 4 | 1.56 | 4.99
COc1ccc(NC2=CC(=O)c3nc4n(c3C2=O)C[C@@H]([C@H](O)CO)OC4)cc1 | > 16 | > 16 | 8.9 | 7.15
O=C1C=C(NCc2ccccc2)C(=O)c2c1nc1n2[C@H]2OC[C@@H](O)[C@H]2OC1 | > 8 | > 8 | 2.67 | > 8
CCOc1ccccc1NC1=CC(=O)c2nc3n(c2C1=O)[C@H]1OC[C@@H](O)[C@H]1OC3 | > 4 | 4.63 | 2.45 | 6.04
O=C1C=C(Nc2cccc(F)c2)C(=O)c2c1nc1n2C[C@@H]([C@H](O)CO)OC1 | > 16 | 7.93 | 4.46 | 6.59
